Assay results: ChEMBL document CHEMBL1121497, “Studies on cardiovascular agents. 6. Synthesis and coronary vasodilating and antihypertensive activities of 1,2,4-triazolo[1,5-a]pyrimidines fused to heterocyclic systems” (1980)

Assays:
Assay type in all cases: functional
Cavia porcellus [1] = species on record: Cavia porcellus; assay: Integrated vasodilating potency (the product of compound-induced maximum percent decrease in the perfusion pressure and the duration of the effect in minutes at 100 ug (ia); Coronary vasoconstricting action)
Rattus norvegicus = assay: Hypotensive index (HI) measured as the area under the time-hypotensive response curve for 6-h period at 30 mg/kg, po
Cavia porcellus [2] = species on record: Cavia porcellus; assay: Integrated vasodilating potency (IVP) (the product of compound-induced maximum percent decrease in the perfusion pressure and the duration of the effect in minutes at 100 ug (ia))

`Cc1nc2ncnn2c2c1CCN2CC(C)O` (stereo not given) was tested, and the IVP (Cavia porcellus [1]) was “Coronary vasoconstricting action” and the HI (Rattus norvegicus) was 5.
Compound `Cc1nc2ncnn2c2c1CCN2CCCN(C)C` has an IVP (Cavia porcellus [2]) of 0 and an HI (Rattus norvegicus) of 10.
`Cc1nc2ncnn2c2c1ccn2CC(C)C` showed an IVP (Cavia porcellus [2]) of 38 and an HI (Rattus norvegicus) of 15.
`CCCCN1CCc2c(C)nc3ncnn3c21` was tested, and the IVP (Cavia porcellus [2]) was 30 and the HI (Rattus norvegicus) was 145.
Work on `Cc1nc2ncnn2c2c1CCN2CCN1CCOCC1` yielded an IVP (Cavia porcellus [2]) of 16 and an HI (Rattus norvegicus) of 5.
Compound `Cc1nc2ncnn2c2c1CCN2CCCO` has an IVP (Cavia porcellus [2]) of 12 and an HI (Rattus norvegicus) of 105.
With `Cc1nc2ncnn2c2c1CCN2CCCN(CCO)CCO` the IVP (Cavia porcellus [2]) was 0 and the HI (Rattus norvegicus) was 45.
`COc1ccc(CN2c3c(c(C)nc4ncnn34)CC2C)cc1` (stereo not given) showed an IVP (Cavia porcellus [2]) of 82 and an HI (Rattus norvegicus) of 11.
With `Cc1ccc(CN2CCc3c(C)nc4ncnn4c32)cc1` the IVP (Cavia porcellus [2]) was 119 and the HI (Rattus norvegicus) was 15.
`Cc1nc2ncnn2c2c1CCN2CCCN1CCCC1` gave an IVP (Cavia porcellus [2]) of 0 and an HI (Rattus norvegicus) of 75.
In the case of `COc1cc(-c2nc3nc(C)c4c(n3n2)N(C(C)(C)C)CC4)cc(OC)c1OC`, the IVP (Cavia porcellus [2]) is reported as 222 and the HI (Rattus norvegicus) is reported as 50.
`Cc1nc2ncnn2c2c1CC[N+]2(C)C(C)(C)C.[I-]` (stereo not given) was tested, and the IVP (Cavia porcellus [2]) was 9 and the HI (Rattus norvegicus) was 0.
`COc1cc(CN2CCc3c(C)nc4ncnn4c32)cc(OC)c1OC` showed an IVP (Cavia porcellus [2]) of 109 and an HI (Rattus norvegicus) of 15.
Work on `COc1ccc(-c2nc3nc(C)c4c(n3n2)N(CCCN2CCCC2)CC4)cc1` yielded an IVP (Cavia porcellus [2]) of 0 and an HI (Rattus norvegicus) of 0.
`COc1ccc(CN2CCc3c(C)nc4ncnn4c32)cc1OC` showed an IVP (Cavia porcellus [2]) of 174 and an HI (Rattus norvegicus) of 55.
For `Cc1nc2ncnn2c2c1CCN2Cc1ccccc1Cl`, the IVP (Cavia porcellus [2]) was 86 and the HI (Rattus norvegicus) was 30.
In the case of `Cc1nc2ncnn2c2c1ccn2C(C)(C)C`, the IVP (Cavia porcellus [2]) is reported as 246 and the HI (Rattus norvegicus) is reported as 160.
Compound `Cc1nc2ncnn2c2c1ccn2Cc1ccccc1Cl` has an IVP (Cavia porcellus [2]) of 22 and an HI (Rattus norvegicus) of 12.
Work on `Cc1nc2nc(-c3ccccc3)nn2c2c1CCN2CCCN1CCCC1` yielded an IVP (Cavia porcellus [2]) of 105 and an HI (Rattus norvegicus) of 44.
With `c1ccc(CCN2CCc3c(C4CC4)nc4ncnn4c32)cc1` the IVP (Cavia porcellus [2]) was 180 and the HI (Rattus norvegicus) was 12.
With `Cc1nc2ncnn2c2[nH]ccc12` the IVP (Cavia porcellus [2]) was 45 and the HI (Rattus norvegicus) was 60.
`Cc1nc2ncnn2c2c1CCN2c1c(Cl)cccc1Cl` was tested, and the IVP (Cavia porcellus [2]) was 7 and the HI (Rattus norvegicus) was 0.
In the case of `COc1ccc(CCN2CCc3c(C)nc4ncnn4c32)cc1OC`, the IVP (Cavia porcellus [2]) is reported as 11 and the HI (Rattus norvegicus) is reported as 15.
With `Cc1nc2nc(C)c3c(n2n1)N(CCCN1CCCC1)CC3` the IVP (Cavia porcellus [2]) was 0 and the HI (Rattus norvegicus) was 10.
In the case of `COc1ccc(Cn2ccc3c(C)nc4ncnn4c32)cc1`, the IVP (Cavia porcellus [2]) is reported as 55 and the HI (Rattus norvegicus) is reported as 0.
`Cc1nc2ncnn2c2c1CCN2CCCOC(=O)c1cccnc1` showed an IVP (Cavia porcellus [2]) of 24 and an HI (Rattus norvegicus) of 30.
`N=C(N)NCCN1CCCCCCC1.N=C(N)NCCN1CCCCCCC1.O=S(=O)(O)O` [GUANETHIDINE SULFATE] showed an HI (Rattus norvegicus) of 195.
`CCC(C)N1CCc2c(C)nc3ncnn3c21` (stereo not given) was tested, and the IVP (Cavia porcellus [2]) was 5 and the HI (Rattus norvegicus) was 100.
In the case of `Cc1nc2ncnn2c2c1CCN2CCc1ccccc1`, the IVP (Cavia porcellus [2]) is reported as 100 and the HI (Rattus norvegicus) is reported as 5.
`Cc1nc2ncnn2c2c1CCN2C(C)CC(C)C` (stereo not given) was tested, and the IVP (Cavia porcellus [2]) was 86 and the HI (Rattus norvegicus) was 5.
`Cc1nc2ncnn2c2c1CCN2Cc1ccccc1F` showed an IVP (Cavia porcellus [2]) of 351 and an HI (Rattus norvegicus) of 5.
Compound `Cc1nc2ncnn2c2c1CCN2CCCN1CCOCC1` has an IVP (Cavia porcellus [2]) of 3 and an HI (Rattus norvegicus) of 40.
Compound `C=CCN1CCc2c(C)nc3ncnn3c21` has an IVP (Cavia porcellus [2]) of 56 and an HI (Rattus norvegicus) of 70.
In the case of `Cc1nc2ncnn2c2c1CC(C)N2Cc1ccccc1Cl` (stereo not given), the IVP (Cavia porcellus [2]) is reported as 80 and the HI (Rattus norvegicus) is reported as 8.
With `CCN1CCc2c(C)nc3ncnn3c21` the IVP (Cavia porcellus [2]) was 12 and the HI (Rattus norvegicus) was 10.
Compound `Cc1nc2ncnn2c2c1CC(C)N2C(C)(C)C` (stereo not given) has an IVP (Cavia porcellus [2]) of 47.
Work on `Cc1nc2ncnn2c2c1CCN2CCS` yielded an IVP (Cavia porcellus [2]) of 285 and an HI (Rattus norvegicus) of 10.
For `Cc1nc2ncnn2c2c1CCN2CCN1CCCC1`, the IVP (Cavia porcellus [2]) was 2 and the HI (Rattus norvegicus) was 0.
`Cc1nc2ncnn2c2c1CCS2` showed an IVP (Cavia porcellus [2]) of 0 and an HI (Rattus norvegicus) of 10.
`Cc1nc2ncnn2c2c1CCN2CCO` gave an IVP (Cavia porcellus [2]) of 12 and an HI (Rattus norvegicus) of 0.
`Cc1nc2ncnn2c2c1CCN2CCOCCO` gave an IVP (Cavia porcellus [2]) of 22 and an HI (Rattus norvegicus) of 10.
`Cc1nc2ncnn2c2c1CCN2C1CCCCC1` showed an IVP (Cavia porcellus [2]) of 65 and an HI (Rattus norvegicus) of 12.
`Cc1nc2ncnn2c2c1CCN2CCOC(=O)c1cccnc1` gave an IVP (Cavia porcellus [2]) of 7 and an HI (Rattus norvegicus) of 30.
Compound `Cc1nc2ncnn2c2c1CCN2CC(C)(C)C` has an IVP (Cavia porcellus [2]) of 760 and an HI (Rattus norvegicus) of 40.
`Cc1nc2ncnn2c2c1CCN2C1CCCCCC1` showed an IVP (Cavia porcellus [2]) of 440 and an HI (Rattus norvegicus) of 45.
`CCC1Cc2c(C)nc3ncnn3c2N1C(C)(C)C` (stereo not given) was tested, and the IVP (Cavia porcellus [2]) was 227 and the HI (Rattus norvegicus) was 12.
Work on `CCN(CC)CCN1CCc2c(C)nc3ncnn3c21` yielded an IVP (Cavia porcellus [2]) of 1 and an HI (Rattus norvegicus) of 0.
Work on `Cc1nc2ncnn2c2c1CCN2c1ccccc1` yielded an IVP (Cavia porcellus [2]) of 72 and an HI (Rattus norvegicus) of 15.
`CCC1Cc2c(C)nc3ncnn3c2N1C(C)C` (stereo not given) was tested, and the IVP (Cavia porcellus [2]) was 0 and the HI (Rattus norvegicus) was 20.
In the case of `Cc1nc2ncnn2c2c1CCN2`, the IVP (Cavia porcellus [2]) is reported as 6 and the HI (Rattus norvegicus) is reported as 55.
In the case of `Cc1nc2ncnn2c2c1N(C)CCN2C`, the IVP (Cavia porcellus [2]) is reported as 45 and the HI (Rattus norvegicus) is reported as 25.
